Data from patent publication US20120035187A1 (priority 2009, published 2012).
Structures can show the parent of a compound that is named as a salt. Where two headings read alike, the source gives them in different places.

What was measured:
APP Tg mouse [1] = assay: Passive avoidance test, APP transgenic mouse; format: in vivo; details: dose 200 μg/kg body weight, five times a week for 12 weeks
APP Tg mouse [2] = assay: Water maze test, APP transgenic mouse; format: in vivo; details: dose 200 μg/kg body weight, time required for arriving the platform
[3] = Hydroxyl radical-scavenging activity, ESR (Fenton reaction)
Description: Stock solutions, prepared by dissolving NK-4, NK-19, NK-53, NK-100, and NK-557 in DMSO, were respectively diluted with refined water to give concentrations of 3-folds higher than those in Table 14 and used as test sample solutions. As a positive control, a neuroprotectant, “edaravone”, commercialized as “RADICUT®” containing 3-methyl-1-phenyl-2-pyrazoline-5-one as an effective ingredient by Mitsubishi Tanabe Pharma Corporation, Osaka, Japan, was diluted with refined water to give a concentration of 3-folds higher than that in Table 14 for use. To 50 μl of refined water, 50 μl of 89 mM DMPO ([…]) commercialized by Dojindo Laboratories, Kumamoto, Japan, 50 μl of the test sample solution, and 50 μl of an aqueous solution containing 1 mM hydrogen peroxide, 1 mM FeSO4, and 1 mM DTPA, commercialized by Wako Pure Chemical Industries, Osaka, Japan, were added, mixed for 10 seconds using a vortex mixer and allowed to react in an incubator controlled at 37° for 40 seconds. After 30 seconds from completion of the reaction, the resulting reaction mixture was subjected to ESR measurement. A control solution was prepared by the same method as above except for using 50 μl of a diluted edaravone solution as a substitute for the test sample solution, and subjected to ESR measurement.
The reaction mixture for measuring hydroxyl or peroxyl radicals was poured into a flat quartz cell for ESR, set to “FREE RADICAL MONITOR JES-FR30”, an ESR apparatus commercialized by JOEL Ltd., Tokyo, Japan, and ESR was measured according to manual manner. The residual ratio of peroxyl radical (%) was determined as a relative value by defining the ESR value, obtained by using 0.1 M phosphate buffer as a substitute of the test sample solution, as 100. The results are in Tables 14 and 15. […] Therefore, the IC50 of edaravone was determined by another test using its higher concentration, and the result is also shown in Table 14. The conditions of the ESR measurement were set as follows: […]

brain ischemia rat [4] = assay: Brain ischemia (cerebral infarction model) rat: size/volume of cerebral infarction region (TTC); format: in vivo; details: for Volume of cerebral infarction region (mm^3): embolus rat, caudal vein
brain ischemia rat [5] = assay: Brain ischemia (cerebral infarction model) rat: behavioral score; format: in vivo; set-up: Behavioral score: scale not given here; details: for Behavioral score: embolus rat, caudal vein
Description: Male SD rats, seven- to eight-weeks of age and 280 to 330 g body weight, commercialized by Charles River Laboratories Japan Inc., Kanagawa, Japan, were allocated randomly into seven groups, consisting of five to seven rats in each group. Among the seven groups, five groups were subjected to the following surgery as test groups: Rats in the test groups were subcutaneously administered with 0.3 mg/kg body weight of atropine, commercialized by Fuso Pharmaceutical industries, Osaka, Japan. Successively, each rat was anesthetized by administrating 600 mg/kg body weight of urethane, commercialized by Sigma-Aldrich Co., MO, USA, and 60 mg/kg-weight of […], commercialized by Sigma-Aldrich Co., MO, USA, into the peritoneal cavity, and fixed to a fixator under voluntary breathing conditions. The right carotid artery bifurcation was exposed by median incision of the neck without damaging vagus nerve. The common carotid artery and external carotid artery around the right carotid artery bifurcation were exfoliated from surrounding connective tissue and wired respectively using “NESCOSUTURE”, a 6-0 nylon string commercialized by Alfresa Pharma Corporation, Osaka, Japan. Then, the internal carotid artery was tied with the 6-0 nylon string for fixation after insertion of an obturator. Successively, the common carotid artery was incised and a silicon-coated obturator, prepared by a 4-0 nylon string, commercialized by Doccol Corp., CA, USA, was inserted from the common carotid artery into the internal carotid artery at a distance of about 16 mm, and clipped to the common carotid artery (see, for example, Koizumi et al., Cerebral stroke, Vol. 8, No. 1, pp. 1-8 (1986)). By the method, the silicon-coated tip of obturator was inserted through the right carotid artery bifurcation to frontal cerebral artery at a distance of about 2 mm and obstructs the inlet of the medial cerebral artery. After two hours occlusion of the medial cerebral artery while keeping the rat on an isothermal pad controlled at a temperature of 37° C., blood was allowed to reperfuse by withdrawing the obturator. Then, the internal carotid artery was tied near the carotid artery bifurcation for preventing the bleeding from the incised part of the common carotid artery. In the model, the blood was reperfused through the left carotid artery, vertebral artery, basilar artery, frontal and backward communication artery because the right carotid artery was clipped.
NK-4, NK-19, NK-53, NK-100, and NK-557, used in the test, were respectively dissolved in DMSO (product No. “D8418”, commercialized by Sigma-Aldrich Co., MO, USA) to give a concentration of 5 mg/ml and filtrated using “MILLEX-LG SLLG025SS”, a DMSO-resistant membrane filter commercialized by Millipore, MA, USA. Stock […], and then 4 ml/kg body weight of any of the resulting diluted solutions was administered ([…]) to five test groups (test groups 1 to 5) consisting of five or seven rats, through their caudal veins at both after one hour from the occlusion of middle cerebral artery and immediately after initiating reperfusion. After 24 hours from the reperfusion of blood, behavioral and histological evaluations of rats were carried out according to the following procedures: As a control group 1, five rats in one group out of the remaining two groups were subjected to the same surgery as the rats in the test groups 1 to 5, and administered with 4 ml/kg body weight of PBS free of any of the compounds through their caudal veins at both after one hour of the medial cerebral artery occlusion and immediately after the start of reperfusion. As the control group 2, six rats in the remaining one group were subjected to a sham surgery, in which common, external, and internal carotid arteries were clipped and then reperfused their blood without inserting the obturator to each medial cerebral artery. […]

PC12-HS cells [6] = system: PC12-HS cells; set-up: suppression of cytotoxicity by 6-hydroxy dopa (in words): dose or concentration left out as unconfirmed
Description: 6-Hydroxy dopa was used as a cytotoxic agent. Similarly as in Experiment 1, PC12-HS cells, which had been cultured in D-MEM medium supplemented with 10 v/v % FBS, were inoculated to 96-well microplates by 2×10^4/100 μl/well. […] Thereafter, the cells were fixed with 10% glutaraldehyde and the absorbance at 650 nm was measured by conventional dye-uptake method using methylene blue.

PC12-HS cells [7] = assay: Evaluation A: neurocyte (cell)-growth-promoting action, ALAMAR BLUE; format: cell-based, rat
Description: Then, the effects of test samples were judged as follows:
The relative value of 140 to 199: Equivalent effect to that of NK-4, symbol (∘); The relative value of 200 or higher: Stronger effect than that of NK-4, symbol ([…]). • The results are in Table 6.
The relative fluorescent intensity of each well was determined by using the fluorescent intensity of each well with cells, which had been cultured by admixing with D-MEM medium containing 10% by volume of FBS without any of the compounds, and the intensity of the resulting culture was regarded as 100%. The results are expressed as cell survival percentages (%) in Table 9. […]
The test was conducted twice for each test sample in a triplicate manner and the data were averaged.
Seven compounds as in Table 17, NK-234, NK-26, NK-9815, NK-9694, NK-28 and NK-147 as well as NK-4, were each dissolved in DMSO to give a concentration of 5 mg/ml. […] The test was conducted twice for each test sample in a triplicate manner and the data were averaged.

PC12-HS cells [8] = assay: Evaluation B: neurite-outgrowth action in presence of NGF; format: cell-based, rat; details: for Percentage (%) of cells with neurite outgrowth: 50 μl/well of 2 μg/ml test solution + NGF final 5 ng/ml, 3 days
[9] = target: T1, acetylcholine esterase (AchE) (Rattus norvegicus, UniProt P37136); assay: biochemical; format: biochemical
T1 sequence (P37136 32-614): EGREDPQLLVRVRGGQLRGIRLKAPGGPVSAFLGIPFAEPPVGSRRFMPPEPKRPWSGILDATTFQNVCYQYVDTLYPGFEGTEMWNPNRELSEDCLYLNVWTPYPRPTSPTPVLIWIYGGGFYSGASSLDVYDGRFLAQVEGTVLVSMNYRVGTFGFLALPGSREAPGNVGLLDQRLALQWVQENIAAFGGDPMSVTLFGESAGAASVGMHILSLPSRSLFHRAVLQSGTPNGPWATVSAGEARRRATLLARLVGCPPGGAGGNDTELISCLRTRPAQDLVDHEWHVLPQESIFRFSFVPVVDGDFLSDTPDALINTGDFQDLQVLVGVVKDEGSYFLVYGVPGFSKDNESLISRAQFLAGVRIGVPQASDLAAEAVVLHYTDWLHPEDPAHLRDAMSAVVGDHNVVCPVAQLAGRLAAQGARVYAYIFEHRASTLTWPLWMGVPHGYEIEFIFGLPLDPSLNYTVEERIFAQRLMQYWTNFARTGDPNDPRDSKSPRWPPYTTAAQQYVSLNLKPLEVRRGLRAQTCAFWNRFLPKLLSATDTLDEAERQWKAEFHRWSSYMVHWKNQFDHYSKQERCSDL

[10] = concentration of compound 3.13 μg/ml
[11] = concentration of compound 6.25 μg/ml
[12] = concentration of compound 12.5 μg/ml
[13] = Experiment 13, cerebral-infarction-model rat, administered through caudal vein
[14] = 100 μl/well of 100 ng/ml test solution, 3 days, control = 100
[15] = compound concentration 25 ng/ml
[16] = compound concentration 80 ng/ml
[17] = compound concentration 400 ng/ml
[18] = compound concentration 2000 ng/ml
[19] = compound concentration 10000 ng/ml

COc1cc2c(cc1OC)C(=O)C(CC1CCN(Cc3ccccc3)CC1)C2 (stereo not shown) [Donepezil HCl]
Passive avoidance reaction (APP Tg mouse [1]): 200 ± 61 s
Water maze test 1st day (APP Tg mouse [2]; 1st day): 120 ± 0
Water maze test 2nd day (APP Tg mouse [2]; 2nd day): 77 ± 19
Water maze test 3rd day (APP Tg mouse [2]; 3rd day): 53 ± 13
Water maze test 4th day (APP Tg mouse [2]; 4th day): 62 ± 16

CC1=NN(c2ccccc2)C(=O)C1 [Edaravone, 3-methyl-1-phenyl-2-pyrazoline-5-one, reference compound]
IC50 (μg/ml) of hydroxyl radical-scavenging activity [3]: 148.0 µg/mL
Residual ratio of hydroxyl radical (%) ([3]; concentration of compound 2.5 μg/ml): 100%
Residual ratio of hydroxyl radical (%) [3, 10]: 100%
Residual ratio of hydroxyl radical (%) [3, 11]: 100%
Residual ratio of hydroxyl radical (%) [3, 12]: 100%
increment of the volume of cerebral infarction region (in words) (brain ischemia rat [4]; [13]): not significantly suppressed
Volume of cerebral infarction region (mm^3) (brain ischemia rat [4]; dose 0.3 mg per kg body weight): 179 ± 27 mm^3
Volume of cerebral infarction region (mm^3) (brain ischemia rat [4]; dose 1 mg per kg body weight): 152 ± 28 mm^3
Volume of cerebral infarction region (mm^3) (brain ischemia rat [4]; dose 3 mg per kg body weight): 183 ± 16 mm^3
behavioral score (in words) (brain ischemia rat [5]; [13]): significantly improved
Behavioral score (brain ischemia rat [5]; dose 0.3 mg per kg body weight): 4.7 ± 0.4
Behavioral score (brain ischemia rat [5]; dose 1 mg per kg body weight): 3.7 ± 0.5
Behavioral score (brain ischemia rat [5]; dose 3 mg per kg body weight): 4.8 ± 0.2
suppression of cytotoxicity by 6-hydroxy dopa (in words) (PC12-HS cells [6]): can not suppress the cytotoxicity

CCCCCN1C(C)=CS\C1=C/C=C(\C=C\c1scc(C)[n+]1CCCCC)c1scc(C)[n+]1CCCCC.[I-].[I-] [NK-2850]
Action of enhancing cell growth (%) (PC12-HS cells [7]; [14]): 553%
Percentage (%) of cells with neurite outgrowth (PC12-HS cells [8]): 56%

CCCCCCCCCCCN1C(C)=CS\C1=C/C=C(/C=C/c1scc(C)[n+]1CCCCCCCCCCC)c1scc(C)[n+]1CCCCCCCCCCC.[I-].[I-] [NK-9640]
Action of enhancing cell growth (%) (PC12-HS cells [7]; [14]): 191%
Percentage (%) of cells with neurite outgrowth (PC12-HS cells [8]): 13%

CCCCCCN1C=CC(=CC=C(C=Cc2cc[n+](CCCCCC)c3ccccc23)c2cc[n+](CCCCCC)c3ccccc23)c2ccccc21.[I-].[I-] [NK-9694]
IC50 (μg/ml) of hydroxyl radical-scavenging activity [3]: 3.4 µg/mL
Action of enhancing cell growth (%) (PC12-HS cells [7]; [15]): 269 ± 17%
Action of enhancing cell growth (%) (PC12-HS cells [7]; compound concentration 50 ng/ml): 123 ± 88%
Action of enhancing cell growth (%) (PC12-HS cells [7]; compound concentration 100 ng/ml): 402 ± 111%
Action of enhancing cell growth (%) (PC12-HS cells [7]; compound concentration 200 ng/ml): 320 ± 36%
Action on neurite outgrowth (%) (PC12-HS cells [8]; [16]): 45 ± 8%
Action on neurite outgrowth (%) (PC12-HS cells [8]; [17]): 55 ± 14%
Action on neurite outgrowth (%) (PC12-HS cells [8]; [18]): 38 ± 12%
Action on neurite outgrowth (%) (PC12-HS cells [8]; [19]): 10< %
suppression of cytotoxicity by 6-hydroxy dopa (in words) (PC12-HS cells [6]; 6-hydroxy dopa, 24 hours): significantly suppressed
Survival-cell percentage (%) (PC12-HS cells [6]; 6-hydroxy dopa, 24 hours, compound 0.83 ng/ml): 62 ± 1%
Survival-cell percentage (%) (PC12-HS cells [6]; 6-hydroxy dopa, 24 hours, compound 3.3 ng/ml): 68 ± 2 %
Survival-cell percentage (%) (PC12-HS cells [6]; 6-hydroxy dopa, 24 hours, compound 13 ng/ml): 67 ± 0 %
Survival-cell percentage (%) (PC12-HS cells [6]; 6-hydroxy dopa, 24 hours, compound 50 ng/ml): 62 ± 3%
Survival-cell percentage (%) (PC12-HS cells [6]; 6-hydroxy dopa, 24 hours, compound 200 ng/ml): 47 ± 1%
Survival-cell percentage (%) (PC12-HS cells [6]; 6-hydroxy dopa, 24 hours, compound 800 ng/ml): 42 ± 1%

CCCCCN1C=CC(=CC=C(C=Cc2cc[n+](CCCCC)c3ccccc23)c2cc[n+](CCCCC)c3ccccc23)c2ccccc21.[I-].[I-] [NK-9815]
Action of enhancing cell growth (%) (PC12-HS cells [7]; [15]): 304 ± 26%
Residual ratio of AchE activity (%) ([9]; concentration of compound 0.78 μg/ml): 82 ± 2%
Residual ratio of AchE activity (%) ([9]; concentration of compound 1.56 μg/ml): 98 ± 24%
Residual ratio of AchE activity (%) [9, 10]: 93 ± 36%
Residual ratio of AchE activity (%) [9, 11]: 94 ± 16%
Residual ratio of AchE activity (%) [9, 12]: 56 ± 7 %
Residual ratio of AchE activity (%) ([9]; concentration of compound 25 μg/ml): 41 ± 14 %
Residual ratio of AchE activity (%) ([9]; concentration of compound 50 μg/ml): 24 ± 4 %
IC50 ([9]; concentration that suppresses AchE activity by 50%, calculated from residual ratios): 17.3 µg/mL
Action on neurite outgrowth (%) (PC12-HS cells [8]; [16]): 68 ± 12%
Action on neurite outgrowth (%) (PC12-HS cells [8]; [17]): 62 ± 12%
Action on neurite outgrowth (%) (PC12-HS cells [8]; [18]): 56 ± 2%
Action on neurite outgrowth (%) (PC12-HS cells [8]; [19]): 11 ± 2%
